Experiments:
[1] = tested on: human acute myeloid leukemia cell strain OCI-AML-3; experiment: Proliferation of OCI-AML-3 cells, Cell Titer-Glo; type: cell-based; conditions: 72 hours, FLT3 A680V
Description: (§1) In addition, in this example the inhibitory activity of preferred compounds (Compound 5 and Compound 135) was tested against the following cell strains: human acute myeloid leukemia cell strain MV4-11 (expressing FLT3/ITD mutant gene), human acute myeloid leukemia cell strain MOLM-13 (expressing FLT3/ITD mutant gene and wild-type FLT3 gene), human acute myeloid leukemia cell strain MOLM-14 (expressing FLT3/ITD mutant gene and wild-type FLT3 gene), human acute myeloid leukemia cell strain OCI-AML-3 (expressing FLT3 A680V mutant gene), human chronic lymphatic leukemia cell strain MEC-1, Chinese hamster lung (CHL) cells, Chinese hamster ovary (CHO) cells, wherein all the cells were purchased from ATCC. In the example the compounds of the present invention were added respectively into the above cells at different concentrations (0.000508 μM, 0.00152 μM, 0.00457 μM, 0.0137 μM, 0.0411 μM, 0.123 μM, 0.370 μM, 1.11 μM, 3.33 μM, 10 μM in DMSO) and the cells were incubated for 72 hours. The number of viable cells was determined by quantification of ATP in living cells using Cell Titer-Glo® (Promega, the USA) Luminescent Cell Viability Assay kit and thereby GI50 was calculated.

BaF3 = experiment: Proliferation of BaF3 cells, CCK8 cell viability assay; type: cell-based; conditions: Mus musculus, 72 hours
How it was run: (§2)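 Murine BaF3 cells made IL-3-independent by retroviral transduction of human kinase domains fused to N-terminal TEL or TPR fragments; parental BaF3 included. Living cells quantified by CCK8 (dehydrogenase activity) read-out, giving GI50 in μM.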

C-Myc = experiment: Degradation of C-Myc in AML cells; type: cell-based, human; conditions: MV-4-11, MOLM13 and MOLM-14; 4 hours; compounds 0.01-3 μM, PKC412 1 μM
Description: In cells having FLT3 gene and/or FLT3/ITD mutant gene, specifically, human acute myeloid leukemia cells MV4-11 (expressing FLT3/ITD mutant gene) cell strain and human acute myeloid leukemia cells MOLM-13 and MOLM-14 (expressing FLT3/ITD mutant gene and wild-type FLT3 gene) cell strains, Compound 5, Compound 135 and a FLT3 kinase inhibitor, PKC412 (purchased from Hao Yuan Chemexpress Company, Shanghai), which was used as the control, were evaluated for their effects in cells on phosphorylation of FLT3 and FLT3/ITD protein kinase and phosphorylation of the closely-related STATS protein which is downstream of FLT3 signaling pathways, as well as their effects on phosphorylation of other relevant protein kinases such as ERK and AKT, by assaying a number of cellular biochemical and functional endpoints. In addition, the effects on C-Myc and phosphorylation of the transcription factor NF-κB subunit p65 was also examined (FIGS. 1a-1f). Compound 5 and Compound 135 at different concentrations (0 μM, 0.01 μM, 0.03 μM, 0.1 μM, 0.3 μM, 1 μM, 3 μM in DMSO) and the FLT3 kinase inhibitor PKC412 (1 μM in DMSO) were used to treat acute myeloid leukemia cells MV-4-11, MOLM13 and MOLM-14 that had FLT3 and/or FLT3/ITD gene for 4 hours, respectively, and then the samples were collected. The effects of the compounds on the phosphorylation of proteins such as STATS, C-Myc, ERK, NF-κB p65, AKT in cells were tested (FIGS. 1a-1f).

[2] = tested on: Chinese hamster lung (CHL) cells; experiment: cells; type: cell-based; conditions: Cricetulus griseus, 72 hours, Cell Titer-Glo
Description: as §1

MV4-11 cells = experiment: Nude mouse model harboring subcutaneous MV4-11 tumor; type: in vivo; conditions: for tumor volume increase: oral gavage; for tumor growth in mice: MV4-11 subcutaneous tumor, daily oral gavage, four weeks
Description: In order to determine the inhibitory effect of Compound 5 and Compound 135 on tumors in vivo, a nude mouse model harboring subcutaneous tumor was introduced. 44 mice (5-week-old) (Balb/c-nu female mice, purchased from Shanghai Snake Experimental Animal Co., Ltd.) were inoculated subcutaneously with MV4-11 cells at 1×10^7 cells/mouse, and the changes in body weight and tumor volume were recorded daily (tumor volume=tumor length×tumor width×tumor width/2). 10 days later, the mice, of which tumor volumes reached 200 mm^3, were randomized into seven groups with 5-9 mice in each group, and were treated as follows: the first group was administered daily by oral gavage with vehicle, i.e., methylcellulose-based aqueous suspension (purchased from Sinopharm Group Chemical Reagent Co., Ltd.); the second, third and the fourth groups were administered daily by oral gavage with 25 mg/kg, 50 mg/kg, 100 mg/kg of Compound 135 in a methylcellulose-based aqueous suspension formulation; the fifth, sixth and seventh groups were administered daily by oral gavage with 25 mg/kg, 50 mg/kg, 100 mg/kg of Compound 5 in a methylcellulose-based aqueous suspension formulation. The first day of administration was recorded as day 0, followed by continuous administration for four weeks (FIGS. 3a-3b).

Tel-cKit/T670I-BaF3 = experiment: Proliferation of Tel-cKit/T670I-BaF3 cells, CCK8 cell viability assay; type: cell-based; conditions: Mus musculus, 72 hours, stably expressing cKIT/T670I
How it was run: as §2

[3] = tested on: human acute myeloid leukemia cell strain MOLM-14; experiment: Proliferation of MOLM-14 cells, Cell Titer-Glo; type: cell-based; conditions: for GI50: Homo sapiens, MOLM-14, 72 hours, Cell Titer-Glo, FLT3/ITD and wild-type FLT3, read-out: GI50 MOLM14
Description: as §1

[4] = tested on: human acute myeloid leukemia cell strain MV4-11; experiment: Proliferation of MV4-11 cells, Cell Titer-Glo; type: cell-based; conditions: for GI50: Homo sapiens, MV4-11, 72 hours, Cell Titer-Glo, FLT3/ITD
Description: as §1

| GI50 [1] [µM] | GI50 (BaF3) [µM] | GI50 (Tel-cKit/T670I-BaF3) [µM] | GI50 [3] [µM] | GI50 [4] [µM] | SMILES | degradation of C-Myc (C-Myc) | GI50 [2] [µM] | tumor volume increase (MV4-11 cells; 50 mg/kg/day) | tumor volume increase (MV4-11 cells; 100 mg/kg/day) | tumor growth in mice (MV4-11 cells) | inhibition of MOLM14 (in words) ([3]; summary of Table 3) | inhibition of MV4-11 (in words) ([4]; summary of Table 3) |
| --- | --- | --- | --- | --- | --- | --- | --- | --- | --- | --- | --- | --- |
| > 10 | > 10 | > 10 | 0.333 | 0.147 | CC(=O)Nc1cc(Oc2ccc(NC(=O)Cc3ccc(F)cc3F)cc2)ncn1 [Example 5, N-[4-(6-acetylamino-pyrimidin-4-yloxy)-phenyl]-2-(2,4-difluoro-phenyl)-acetamide] | significant effects on the degradation | > 10 | slowed significantly | slowed vastly | significantly inhibited | selectively and strongly inhibited | selectively and strongly inhibited |
| > 10 | > 10 | > 10 | 0.343 | 0.284 | CC(=O)Nc1cc(Oc2ccc(NC(=O)Cc3ccccc3C(F)(F)F)cc2)ncn1 [Example 135, N-[4-(6-acetylamino-pyrimidin-4-yloxy)-phenyl]-2-(2-trifluoromethyl-phenyl)-acetamide] | significant effects on the degradation | > 10 | slowed significantly | slowed vastly | significantly inhibited |  |  |
